For assay [1], the species on record is Rattus norvegicus. Nature of the assay: Biological activity was determined by pressor test using pithed rat preparations. Format: functional.
Assay [2] is filed under the species Rattus norvegicus. Nature of the assay: Biological activity was determined by uterotonic in vitro test in magnesium-free solution. Format: functional.
Assay [3] concerns Rattus norvegicus. Nature of the assay: Biological activity was determined by uterotonic in vivo test using urethane-anesthetized rats. Format: functional.
In the next assay the target is T1, Oxytocin receptor (Rattus norvegicus, UniProt P70536).
T1 sequence (P70536 whole entry): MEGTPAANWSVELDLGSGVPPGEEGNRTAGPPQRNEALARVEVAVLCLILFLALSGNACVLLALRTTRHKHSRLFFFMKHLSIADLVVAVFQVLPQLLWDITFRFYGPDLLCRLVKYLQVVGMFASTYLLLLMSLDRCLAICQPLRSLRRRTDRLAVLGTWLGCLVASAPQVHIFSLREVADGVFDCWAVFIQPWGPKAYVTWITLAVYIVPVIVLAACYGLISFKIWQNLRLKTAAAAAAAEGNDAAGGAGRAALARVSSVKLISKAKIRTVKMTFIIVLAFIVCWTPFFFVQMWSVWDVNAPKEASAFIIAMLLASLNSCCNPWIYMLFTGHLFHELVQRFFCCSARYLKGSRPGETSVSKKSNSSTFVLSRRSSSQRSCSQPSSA
Nature of the assay: Binding affinity against Oxytocin receptor was determined in rat uterine membrane using radioligand [3H]oxytocin. Format: cell membranes.

In assay [4] the test system is Rattus norvegicus. As to the kind of experiment: Biological activity was determined by uterotonic in vivo test using urethane-anesthetized rats (protracted action). Format: functional.
Assay [5] is filed under the species Rattus norvegicus. As to the kind of experiment: Biological activity was determined by pressor test using pithed rat preparations (protracted action). Format: functional.

Turning to `CC[C@H](C)[C@@H]1NC(=O)[C@H](Cc2ccc(O)cc2)NC(=O)[C@@H](N)CSSC[C@@H](C(=O)N2CCC[C@H]2C(=O)N[C@@H](CC(C)C)C(=O)NCC(N)=O)NC(=O)[C@H](CC(N)=O)NC(=O)[C@H](CCC(N)=O)NC1=O` [OXYTOCIN], the Activity in the assay listed under Rattus norvegicus [1] is given as 5 IU mg-1; in the assay listed under Rattus norvegicus [2] it was 510 IU mg-1; in the assay on Rattus norvegicus [3], 450 IU mg-1.

Broadly, the Ki is the dissociation constant of the complex between target and ligand, obtained from inhibition or displacement. Higher therefore signals a looser hold on the target. Consider `CC[C@H](C)[C@@H]1NC(=O)[C@H](Cc2ccc(O)cc2)NC(=O)[C@@H](N)CSSSC[C@@H](C(=O)N2CCC[C@H]2C(=O)N[C@@H](CC(C)C)C(=O)NCC(N)=O)NC(=O)[C@H](CC(N)=O)NC(=O)[C@H](CCC(N)=O)NC1=O` [OXYTOCIN TRISULFIDE], for which the affinity at Oxytocin receptor corresponds to a Ki of 6 nM. That is a single-digit nanomolar value.

Regarding `CC[C@H](C)[C@@H]1NC(=O)[C@H](Cc2ccc(O)cc2)NC(=O)CCSSC[C@@H](C(=O)N2CCC[C@H]2C(=O)N[C@@H](CC(C)C)C(=O)NCC(N)=O)NC(=O)[C@H](CC(N)=O)NC(=O)[C@H](CCC(N)=O)NC1=O` [DEMOXYTOCIN], on Oxytocin receptor, the affinity, expressed as Ki, was 0.9 nM. In addition, the Activity is on record as 5 IU mg-1 in the assay listed under Rattus norvegicus [1], 576 IU mg-1 in the assay filed under Rattus norvegicus [2] and 541 IU mg-1 with Rattus norvegicus [4].

At Oxytocin receptor, `CC[C@H](C)[C@@H]1NC(=O)[C@H](Cc2ccc(O)cc2)NC(=O)CCSSSC[C@H](C(=O)N2CCC[C@H]2C(=O)N[C@@H](CC(C)C)C(=O)NCC(N)=O)NC(=O)[C@H](CC(N)=O)NC(=O)[C@H](CCC(N)=O)NC1=O` [DEAMINOOXYTOCIN TRISULFIDE] gave a Ki of 3 nM. The Activity in the assay listed under Rattus norvegicus [5] is 0.6 IU mg-1; in the assay listed under Rattus norvegicus [2] it was 32.7 IU mg-1; in the assay on Rattus norvegicus [4], 135 IU mg-1.

Source of the values: ChEMBL document CHEMBL1129969 (J Med Chem, 1997).
